One data set relates to L. major promastigotes. The data set can be described thus: L. major promastigote dose response assay (alamarBlue/resazurin). The settings on record: for EC50: 44 hrs + 4 hrs alamarBlue/resazurin, 26° C. Format: cell-based. The protocol:
Using a standard alamarBlue™ assay, activity and selectivity were assessed using L. major promastigotes and HepG2 cells, respectively.
All parasite and human cell cultures were grown and manipulated following biosafety level 2 instructions under sterile conditions. L. major FV1, L. amazonensis (MHOM/Br/75/JOSEFA), L. donovani BOB (derived from MHOM/SD/62/1S-CL2D), T. brucei (90-13, 427 strain) and T. cruzi (Dm28c) were used throughout.
All steps were carried out under sterile conditions. Frozen stocks of the relevant Leishmania promastigote species were thawed rapidly and added to Schneider's media. Promastigotes were grown at 26° C. in Nunc EasYFlask 25 cm^2 Nunclon Delta Surface (ThermoScientific) and frozen stocks were prepared on low passage cultures (p2-4) by pelleting the cells by centrifugation and resuspending in Schneider's media with 10% DMSO. The cultures were aliquoted into cryovials (Starlab) and cooled slowly to −150° C. for long term storage.
All steps were carried out under sterile conditions. […] Cycloheximide or amphotericin B were used as positive controls and 2% DMSO was used as a negative control. alamarBlue® (ThermoFisher scientific) or resazurin solution was added to each well and incubated for a further 4 hrs at 26° C. Cell-viability was determined using a BioTek™ FLx800 microplate reader with Gen5® 1.08 data analysis software (BioTek) by monitoring fluorescence emission (λex 560/λem 590 nm). Dose response curves were fitted using sigmoidal regression analysis (GraphPad Prism 8 software) and used to calculate EC50 values.
(Resazurin is reduced to fluorescent resorufin, in cell work by metabolically active cells.)

Data set [1] concerns L. amazonensis promastigotes. The data set can be described thus: L. amazonensis promastigote dose response assay (alamarBlue/resazurin). Type of data set: cell-based. The settings on record: 44 hrs + 4 hrs alamarBlue/resazurin, 26° C., read-out: EC50 (L. amaz)/μM.
In data set [2] the test system is L. donovani promastigotes. The data set is described as follows: L. donovani promastigote dose response assay (resazurin). The settings on record: promastigotes, 72 hrs at 26° C., resazurin, read-out: EC50 (L. don)/μM. Type of data set: cell-based.
Another data set in a line: Kinetic solubility. The settings on record: for solubility at 2 h: kinetic from dmso stock. The text has this:
All chemicals and solvents were sourced from commercial suppliers. Buffers were made up using purified water from a MilliQ® water purification system. Biorelevant buffers (FESSIF, FASSIF and FASSGF) were purchased from Biorelevant and made up according to manufacturer's instructions. 15% FBS (heat inactivated, South American origin, ThermoFisher scientific) in PBS (Fisher Scientific) was filter sterilised (0.22 μm Fisherbrand™ Sterile PES Syringe Filter, Fisher Scientific) before use. Sodium taurocholate was purchased from Merck.
λmax was determined for each compound from the UV-Vis absorption spectrum of a 200 LIM compound solution in buffer of interest using a Varian Cary® 100 UV-Vis Spectrophotometer. A calibration curve of λmax VS concentration was obtained by serial dilution of compound from 200 μM in the buffer of interest, correcting for background buffer absorption. For each sample, a DMSO solution of compound was incubated in buffer of interest (<5% DMSO) for 2 hrs at RT. The solution was filtered (0.22 μm Fisherbrand™ Sterile PES Syringe Filter, Fisher Scientific) or centrifuged (14,500 rpm, 10 min) to remove undissolved debris and the supernatant was removed and diluted as required. The corrected UV absorption of the supernatant at Amax Was measured using a Varian Cary® 100 UV-Vis Spectrophotometer and compared to the calibration curve to determine compound solubility.

Converted amounts (≈) assume the structure as drawn. Like-named read-outs stand apart in the source and are kept apart here.

Take “N-(3-cyanothiophen-2-yl)-5′-nitrothiophene-2′-carboxamide [Compound 5]”: the EC50 in the data set with L. major promastigotes came out at 1.1 µM; in data set [1] it was 2.1 µM; in data set [2], 1.12 µM.

Regarding `NC(=O)c1ccccc1CNC(=O)c1ccc([N+](=O)[O-])s1` [Compound 47, N-(2-carbamoylbenzyl)-5′-nitrothiophene-2′-carboxamide], in the data set with L. major promastigotes (Leishmania major, 48 h), the EC50 is 21 ± 3 µM. In “Kinetic solubility” (PBS, aqueous buffer), this molecule showed a solubility at 2 h of 179 ± 8 µM (≈ 54.7 µg/mL).

In the case of `O=C(c1ccc([N+](=O)[O-])s1)N1CCCc2ccccc21` [Compound 49, 1-(5′-nitrothiophene-2′-carbonyl)-1,2,3,4-tetrahydroquinoline], the EC50 with L. major promastigotes (Leishmania major, 48 h) amounted to 11.1 ± 0.3 µM. The molecule also returned a solubility at 2 h in “Kinetic solubility” (PBS, aqueous buffer) of 151 ± 3 µM (≈ 43.5 µg/mL).

For the molecule `CNC(=O)c1ccsc1NC(=O)c1cccnc1` [Compound 15, N-[3-(methylcarbamoyl)thiophen-2-yl]pyridine-3′-carboxamide], the EC50 with L. major promastigotes (Leishmania major, 48 h) was 82 ± 7 µM; in data set [1] (Leishmania amazonensis, 48 h), 59 ± 2 µM.

On to `NC(=O)c1ccccc1NC(=O)c1ccc([N+](=O)[O-])s1` [Compound 27, N-(2-carbamoylphenyl)-5′-nitrothiophene-2′-carboxamide], for which the EC50 in the data set on L. major promastigotes was found to be 0.47 µM. Moreover, in data set [1], the EC50 came to 0.079 µM. In addition, in “Kinetic solubility”, the “Solubility (FESSIF)/μM” value was 90 µM (≈ 26.2 µg/mL) and the “Solubility (PBS)/μM” value was less than 2.5 µM.

Turning to `CNC(=O)c1ccc(OCCOCCOC)cc1NC(=O)c1ccc([N+](=O)[O-])s1` [Compound 51, N-{5-[2″-(2″-methoxyethoxy)ethoxy]-2-(methylcarbamoyl)phenyl}-5′-nitrothiophene-2′-carboxamide], the EC50 in the data set with L. major promastigotes (Leishmania major, 48 h) worked out at 0.32 µM; in data set [1] (Leishmania amazonensis, 48 h), 0.22 µM; in data set [2] (Leishmania donovani), 0.19 µM. In addition, the solubility at 2 h in “Kinetic solubility” (FASSGF, fassgf or other biorelevant) was 11 µM (≈ 4.66 µg/mL); in the data set “Kinetic solubility” (FASSIF), less than 7.4 µM; in the data set “Kinetic solubility” (FESSIF), 7.26 µM (≈ 3.07 µg/mL); in “Kinetic solubility” (PBS, aqueous buffer), 2.27 µM (≈ 0.961 µg/mL).

As to `CN(C)C(=O)c1ccccc1NC(=O)c1ccc([N+](=O)[O-])s1` [Compound 56, N-[2-(dimethylcarbamoyl)phenyl]-5′-nitrothiophene-2′-carboxamide], the EC50 with L. major promastigotes (Leishmania major, 48 h) turned out to be 17 µM; in data set [1] (Leishmania amazonensis, 48 h), 6.3 µM.

In the case of `CNC(=O)c1ccsc1NC(=O)c1ccc([N+](=O)[O-])o1` [Compound 17, N-[3-(methylcarbamoyl)thiophen-2-yl]-5′-nitrofuran-2′-carboxamide], the EC50 with L. major promastigotes (Leishmania major, 48 h) came to 0.37 µM; in data set [1] (Leishmania amazonensis, 48 h) it was 0.33 µM; in data set [2] (Leishmania donovani), 0.2 µM.

For the molecule `CCOC(=O)C1CCCC1NC(=O)c1ccc([N+](=O)[O-])s1` (stereo not drawn) [Compound 22, anti-ethyl-2-(5′-nitrothiophene-2′-amido)cyclopentane-1-carboxylate], the EC50 came out at 10 µM in the data set with L. major promastigotes and 13 µM in data set [1].

On to `CNC(=O)C1CCCC1NC(=O)c1ccc([N+](=O)[O-])s1` (racemic) [Compound 25, N—[±2′-(methylcarbamoyl)cyclopentyl]-5′-nitrothiophene-2-carboxamide], for which the values for the EC50 (in the data set on L. major promastigotes; in data set [1]; in data set [2]) were 20 µM, 8 µM and 3.4 µM, respectively.

As for `CNC(=O)c1ccsc1NC(=O)c1ccc([N+](=O)[O-])cc1` [Compound 19, N-methyl 2-(4′-nitrobenzamido)thiophene-3-carboxamide], the EC50 in the data set on L. major promastigotes (Leishmania major, 48 h) is more than 100 µM; in data set [1] (Leishmania amazonensis, 48 h) it was more than 100 µM.

For `O=C(NC1CCCC1C(=O)O)c1ccc([N+](=O)[O-])s1` (racemic) [Compound 24, ±anti 2-(5′-nitrothiophene-2′-amido)cyclopentane-1-carboxylic acid], the EC50 (in the data set on L. major promastigotes; in data set [1]) was more than 100 µM each time.

For the molecule `CNC(=O)c1ccsc1/N=C/c1ccc([N+](=O)[O-])s1` [Compound 50, N-methyl-2-[(E)-[(5′-nitrothiophen-2′-yl)methylidene]amino]thiophene-3-carboxamide], in the data set on L. major promastigotes (Leishmania major, 48 h), the EC50 turned out to be 0.86 ± 0.07 µM. In the data set “Kinetic solubility” (PBS, aqueous buffer), this molecule came in with a solubility at 2 h of 101 ± 6 µM (≈ 29.8 µg/mL).

In the case of `CNC(=O)c1ccsc1N(C)C(=O)c1ccc([N+](=O)[O-])s1` [Compound 48, N-methyl-2-(N-methyl-5′-nitrothiophene-2′-amido)thiophene-3-carboxamide], the EC50 in the data set on L. major promastigotes (Leishmania major, 48 h) was found to be 9.6 ± 0.7 µM. For the same molecule, the solubility at 2 h in “Kinetic solubility” (PBS, aqueous buffer) is 190 ± 20 µM (≈ 61.8 µg/mL).

In the case of `CNC(=O)c1ccsc1NC(=O)c1cncs1` [Compound 12, N-[3-(methylcarbamoyl)thiophen-2-yl]-1′,3′-thiazole-5′-carboxamide], the EC50 was 88 ± 6 µM in the data set on L. major promastigotes (Leishmania major, 48 h) and 53 ± 3 µM in data set [1] (Leishmania amazonensis, 48 h).

“5′-bromo-N-[3-(methylcarbamoyl)thiophen-2-yl]thiophene-2′-carboxamide [Compound 7]”: the EC50 (with L. major promastigotes; in data set [1]) was more than 100 µM in each case.

For the molecule `O=C(Nc1ccccc1C(F)(F)F)c1ccc([N+](=O)[O-])s1` [Compound 31, 5′-nitro-N-[2-(trifluoromethyl)phenyl]thiophene-2′-carboxamide], the EC50 in the data set on L. major promastigotes was 8.3 µM; in data set [1] it was 4.24 µM.

For `CNC(=O)c1ccsc1NC(=O)c1cscn1` [Compound 13, N-[3-(methylcarbamoyl)thiophen-2-yl]-1′,3′-thiazole-4′-carboxamide], the EC50 is more than 100 µM in the data set on L. major promastigotes (Leishmania major, 48 h) and 93 ± 7 µM in data set [1] (Leishmania amazonensis, 48 h).

`CNC(=O)c1cccc(Nc2ccc([N+](=O)[O-])s2)c1` [Compound 34, N-methyl-3-[(5′-nitrothiophen-2′-yl)amino]benzamide]: the EC50 in the data set on L. major promastigotes stood at 3.5 µM; in data set [1] it was 0.26 µM.

Take `O=C(Nc1cccc(C(F)(F)F)c1)c1ccc([N+](=O)[O-])s1` [Compound 37, 5′-nitro-N-[3-(trifluoromethyl)phenyl]thiophene-2′-carboxamide]: the EC50 with L. major promastigotes was determined as 3.5 µM; in data set [1] it was 2.22 µM.

For `CNC(=O)c1ccsc1NC(=O)c1cccs1` [Compound 6, N-methyl-2-(thiophene-2′-amido)thiophene-3-carboxamide], the EC50 in the data set with L. major promastigotes (Leishmania major, 48 h) is more than 100 µM; in data set [1] (Leishmania amazonensis, 48 h), more than 100 µM.

As for `CNC(=O)c1ccsc1NC(=O)c1ccc([N+](=O)[O-])cc1C(F)(F)F` [Compound 20, N-methyl-2-[4′-nitro-2′-(trifluoromethyl)benzamido]thiophene-3-carboxamide], the EC50 in the data set on L. major promastigotes (Leishmania major, 48 h) came out at 16.6 ± 0.2 µM; in data set [1] (Leishmania amazonensis, 48 h), 38.7 µM. For the same molecule, the “improvement in antileishmanial activity compared to 19” value with L. major promastigotes (Table 2) is more than 3 fold.

Consider `CNC(=O)c1ccsc1NC(=O)c1ccncc1` [Compound 14, N-[3-(methylcarbamoyl)thiophen-2-yl]pyridine-4′-carboxamide], for which the EC50 worked out at 82 ± 1 µM with L. major promastigotes (Leishmania major, 48 h) and 45 ± 5 µM in data set [1] (Leishmania amazonensis, 48 h).

Turning to `CNC(=O)c1ccsc1NC(=O)c1ccc2nonc2c1` [Compound 16, N-[3-(methylcarbamoyl)thiophen-2-yl]-2,1,3-benzoxadiazole-5′-carboxamide], the EC50 with L. major promastigotes (Leishmania major, 48 h) was more than 100 µM; in data set [1] (Leishmania amazonensis, 48 h) it was more than 100 µM.

With `O=C(Nc1ccccc1)c1ccc([N+](=O)[O-])s1` [Compound 33, 5′-nitro-N-phenylthiophene-2′-carboxamide], the EC50 was 4.06 µM in the data set on L. major promastigotes, 3.6 µM in data set [1] and 0.93 µM in data set [2]. Moreover, in the data set “Kinetic solubility” (kinetic solubility in PBS, 2 hrs at RT), the “Solubility (PBS)/μM” value amounted to 15 µM (≈ 3.72 µg/mL).

As for `CNC(=O)c1ccsc1NC(=O)c1nccs1` [Compound 11, N-[3-(methylcarbamoyl)thiophen-2-yl]-1′,3′-thiazole-2′-carboxamide], the EC50 is 78 ± 2 µM in the data set on L. major promastigotes (Leishmania major, 48 h) and more than 100 µM in data set [1] (Leishmania amazonensis, 48 h).

For orientation: solubility means how much of the substance goes into solution per volume.

The values are drawn from patent US20260125356A1, “TREATMENT OF LEISHMANIASIS” (THE UNIVERSITY OF DURHAM, priority 2022, published 2026).
